Consider three compounds from article PMC12119672, “Development and evaluation of [^11C]DPA-813 and [^18F]DPA-814: novel TSPO PET tracers insensitive to human single nucleotide polymorphism rs6971” (European Journal of Nuclear Medicine and Molecular Imaging, 2025).

The subject of one data set is A147T TSPO. Further details: method as in PMID 30900397. The settings on record: cited from earlier work.
The test system of data set [1] is Central Benzodiazepine Receptor. The experiment in a line: Off-target screen, 10 µM single dose (Eurofins). The following applies: n = 2, inhibition of agonist radioligand binding. More on the design: species or system human. The method, then: (§1) Binding affinities (Ki) to wild-type (WT) and A147T human TSPO were assessed using a previously published method. HEK-293T cells were stably transfected with WT and A147T TSPO. Membranes were isolated from each cell line using an Ultra-Turrax hand-held homogeniser. These cells have been previously validated as an in vitro model for low- and high-affinity TSPO binding. […] Non-specific binding was determined using a saturating concentration (1 µM) of non-tritiated PK 11195. This non-specific binding contributed less than 10% of total binding. Reactions were halted by filtering through a 96-well glass-fibre filter plate (Millipore), followed by eight washes with ice-cold 50 mM Tris HCl. Microscint 0 was added to the plate and resultant radioactivity-related photons were collected by a Microbeta 2450 (PerkinElmer). Ki values were fit to a competition binding curve fit on non-specific binding-corrected data using GraphPad Prism 10.0 (GraphPad). […] Binding affinities (Ki) to rat TSPO were measured in duplicate by Eurofins Panlabs Discovery Services (assay #226700) (Supplementary Fig. 12). […]
(§2) Supplementary Table 5. […] 10 μM single dose (n = 2) screen performed by Eurofins Panlabs Discovery. ^a All targets are human receptors. ^b Inhibition of antagonist radioligand binding. ^c Inhibition of agonist radioligand binding. ^d Enzymatic functional readout.

A further data set concerns the target T1, MAO-B (Homo sapiens, UniProt P27338).
T1 construct: purchased Eurofins Panlabs Discovery Services
Put plainly: Off-target screen, 10 µM single dose (Eurofins), enzymatic functional readout. It counts as biochemical. The settings on record: n = 2, read-out: % Binding Inhibition at 10 μM, MAO-B. The method, then:
as §1, §2

A further data set addresses T2, A147T human TSPO (Homo sapiens, UniProt P30536).
T2 construct: expressed in transfected cells
Put plainly: Competition radioligand binding vs [3H]PK 11195, membranes of transfected HEK-293T cells (A147T TSPO). The settings on record: for increase in affinity to A147T TSPO versus parent compound: DPA-813 vs DPA-713, DPA-814 vs DPA-714; for Ki: vs [3H]PK 11195 (10 nM), HEK-293T membranes, mean ± SEM, read-out: Ki A147T hTSPO. The method, then:
(§3) Binding affinities (Ki) to wild-type (WT) and A147T human TSPO were assessed using a previously published method. HEK-293T cells were stably transfected with WT and A147T TSPO. Membranes were isolated from each cell line using an Ultra-Turrax hand-held homogeniser. These cells have been previously validated as an in vitro model for low- and high-affinity TSPO binding. […] Non-specific binding was determined using a saturating concentration (1 µM) of non-tritiated PK 11195. This non-specific binding contributed less than 10% of total binding. Reactions were halted by filtering through a 96-well glass-fibre filter plate (Millipore), followed by eight washes with ice-cold 50 mM Tris HCl. Microscint 0 was added to the plate and resultant radioactivity-related photons were collected by a Microbeta 2450 (PerkinElmer). Ki values were fit to a competition binding curve fit on non-specific binding-corrected data using GraphPad Prism 10.0 (GraphPad). Results are presented as mean ± standard error of the mean (SEM) from at least three independent experiments. Binding affinities (Ki) to rat TSPO were measured in duplicate by Eurofins Panlabs Discovery Services (assay #226700) (Supplementary Fig. 12). Single-dose (10 µM) off-target in vitro screening was performed in duplicate by Eurofins Panlabs Discovery Services (Supplementary Table 5).
(§4) In vitro binding affinities (Ki) for human TSPO were initially assessed using a competition radioligand assay against [^3H]PK 11195 in our well-characterised assay using membranes isolated from transfected HEK-293T cells overexpressing either WT or A147T TSPO [32]. This structure-activity relationship study will be reported in a separate publication. […] Data for DPA-713 and DPA-714 are included for comparison.

A further data set addresses T3, rat TSPO (Rattus norvegicus, UniProt P16257).
T3 construct: Heart of male Wistar derived rats weighing 175 ± 25 g are used to prepare peripheral benzodiazepine membrane receptors [TSPO]; tissue Eurofins Panlabs Discovery Services assay #226700; host or cells: rat heart (male Wistar derived)
Put plainly: Competitive binding to rat TSPO vs [3H]PK 11195 (Eurofins assay #226700, rat heart membranes). The following applies: vs [3H]PK 11195, result in words. The method, then: as §3
Supplementary Figure 12 Dose-response curves and binding affinities of DPA-813 and DPA-814 showing competitive binding to rat TSPO vs [^3H]PK 11195. Method from Eurofins: Heart of male Wistar derived rats weighing 175 ± 25 g are used to prepare peripheral benzodiazepine membrane receptors [TSPO] in modified Tris-HCl buffer pH 7.5. A 0.25 mg aliquot is incubated with 0.3 nM [^3H]PK 11195 for 15 minutes at 25 °C. Non-specific binding is estimated in the presence of 100 μM Dipyridamole. Membranes are filtered and washed, the filters are then counted to determine [^3H]PK 11195 specifically bound.

Data set [2] has as its target T4, WT human TSPO (Homo sapiens, UniProt P30536, T147A).
T4 construct: expressed in transfected cells
The experiment in a line: Competition radioligand binding vs [3H]PK 11195, membranes of transfected HEK-293T cells (WT TSPO). The following applies: DPA-813 vs DPA-713; DPA-814 vs DPA-714. The method, then:
as §3, §4

Data set [3] deals with T5, WT human TSPO (Homo sapiens, UniProt P30536).
T5 construct: expressed in transfected cells
Described as above. The settings on record: vs [3H]PK 11195 (10 nM), HEK-293T membranes, mean ± SEM; read-out: Ki WT hTSPO. The method, then: as §3, §4

For the next data set, the target named is T6, D1 (Homo sapiens, UniProt P21728).
T6 construct: purchased Eurofins Panlabs Discovery Services
Put plainly: Off-target screen, 10 µM single dose (Eurofins). The settings on record: read-out: % Binding Inhibition at 10 μM, D1. The method, then: as §3
(§5) Supplementary Table 5. Off-target binding to common CNS targets. 10 μM single dose (n = 2) screen performed by Eurofins Panlabs Discovery. ^a All targets are human receptors. ^b Inhibition of antagonist radioligand binding. ^c Inhibition of agonist radioligand binding. ^d Enzymatic functional readout.

The target of another data set is T7, NET (Homo sapiens, UniProt P23975).
T7 construct: purchased Eurofins Panlabs Discovery Services
Put plainly: Off-target screen, 10 µM single dose (Eurofins). The settings on record: read-out: % Binding Inhibition at 10 μM, NET. The method, then:
as §3, §5

A further data set concerns the target T8, 5-HT2A (Homo sapiens, UniProt P28223).
T8 construct: purchased Eurofins Panlabs Discovery Services
The experiment in a line: Off-target screen, 10 µM single dose (Eurofins). The following applies: read-out: % Binding Inhibition at 10 μM, 5-HT2A. The method, then: as §3, §5

A further data set addresses T9, 5-HT2B (Homo sapiens, UniProt P41595).
T9 construct: purchased Eurofins Panlabs Discovery Services
Put plainly: Off-target screen, 10 µM single dose (Eurofins). The settings on record: read-out: % Binding Inhibition at 10 μM, 5-HT2B. The method, then: as §3, §5

Another data set has as its target T10, β2 Adrenergic receptor (Homo sapiens, UniProt P07550).
T10 construct: purchased Eurofins Panlabs Discovery Services
The experiment in a line: Off-target screen, 10 µM single dose (Eurofins). The settings on record: read-out: % Binding Inhibition at 10 μM, β2 Adrenergic receptor. The method, then: as §3, §5

The target in the next data set is T11, nAChR (α4/β2) (Homo sapiens, UniProt P17787+P43681).
T11 construct: purchased Eurofins Panlabs Discovery Services
Put plainly: Off-target screen, 10 µM single dose (Eurofins). The following applies: read-out: % Binding Inhibition at 10 μM, nAChR (α4/β2). The method, then:
as §3, §5

The target in another data set is T12, SERT (Homo sapiens, UniProt P31645).
T12 construct: purchased Eurofins Panlabs Discovery Services
The experiment in a line: Off-target screen, 10 µM single dose (Eurofins). The settings on record: read-out: % Binding Inhibition at 10 μM, SERT. The method, then:
as §3, §5

In another data set the target is T13, CB2 (Homo sapiens, UniProt P34972).
T13 construct: purchased Eurofins Panlabs Discovery Services
The experiment in a line: Off-target screen, 10 µM single dose (Eurofins). The following applies: read-out: % Binding Inhibition at 10 μM, CB2. The method, then: as §3, §5

Another data set deals with T14, MOP (Homo sapiens, UniProt P35372).
T14 construct: purchased Eurofins Panlabs Discovery Services
Put plainly: Off-target screen, 10 µM single dose (Eurofins). The following applies: read-out: % Binding Inhibition at 10 μM, MOP. The method, then: as §3, §5

A further data set deals with T15, CB1 (Homo sapiens, UniProt P21554).
T15 construct: purchased Eurofins Panlabs Discovery Services
The experiment in a line: Off-target screen, 10 µM single dose (Eurofins). The settings on record: read-out: % Binding Inhibition at 10 μM, CB1. The method, then:
as §3, §5

Another data set has as its target T16, D2L (Homo sapiens, UniProt P14416).
T16 construct: purchased Eurofins Panlabs Discovery Services
Put plainly: Off-target screen, 10 µM single dose (Eurofins). The settings on record: read-out: % Binding Inhibition at 10 μM, D2L. The method, then: as §3, §5

In a further data set the target is T17, DAT (Homo sapiens, UniProt Q01959).
T17 construct: purchased Eurofins Panlabs Discovery Services
Put plainly: Off-target screen, 10 µM single dose (Eurofins). The settings on record: read-out: % Binding Inhibition at 10 μM, DAT. The method, then:
as §3, §5

For the next data set, the target named is T18, M1 (Homo sapiens, UniProt P11229).
T18 construct: purchased Eurofins Panlabs Discovery Services
The experiment in a line: Off-target screen, 10 µM single dose (Eurofins). The following applies: read-out: % Binding Inhibition at 10 μM, M1. The method, then:
as §3, §5

A short description of data set [4]: Lipophilicity (logD at pH 7.4) by gradient HPLC. The following applies: gradient HPLC retention correlated with standard compounds; pH 7.4, gradient HPLC; read-out: logD7.4. It counts as physicochemical. The text has this:
Partition coefficient values (logD) were estimated at pH 7.4 by correlating chromatographic retention properties against the characteristics of a series of standard compounds with known partition coefficient values. The method employed a gradient HPLC based on a previously published method.

SMILES strings stand for the structures.

T2 sequence (P30536 whole entry, stated change not applied): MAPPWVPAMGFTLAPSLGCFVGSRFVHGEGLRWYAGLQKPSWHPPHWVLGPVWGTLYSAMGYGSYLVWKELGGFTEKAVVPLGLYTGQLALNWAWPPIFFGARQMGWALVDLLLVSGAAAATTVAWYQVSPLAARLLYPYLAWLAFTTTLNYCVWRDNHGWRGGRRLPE
T13 sequence (P34972 whole entry): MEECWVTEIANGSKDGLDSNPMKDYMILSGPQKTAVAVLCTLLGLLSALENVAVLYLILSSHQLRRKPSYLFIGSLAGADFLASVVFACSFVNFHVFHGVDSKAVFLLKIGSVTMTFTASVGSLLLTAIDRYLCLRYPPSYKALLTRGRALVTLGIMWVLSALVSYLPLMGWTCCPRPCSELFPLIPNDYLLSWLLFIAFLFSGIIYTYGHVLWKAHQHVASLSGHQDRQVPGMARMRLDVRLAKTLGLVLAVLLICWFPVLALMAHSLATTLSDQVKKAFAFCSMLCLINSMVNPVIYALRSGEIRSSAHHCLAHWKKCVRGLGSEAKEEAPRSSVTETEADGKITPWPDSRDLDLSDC
T17 sequence (Q01959 whole entry): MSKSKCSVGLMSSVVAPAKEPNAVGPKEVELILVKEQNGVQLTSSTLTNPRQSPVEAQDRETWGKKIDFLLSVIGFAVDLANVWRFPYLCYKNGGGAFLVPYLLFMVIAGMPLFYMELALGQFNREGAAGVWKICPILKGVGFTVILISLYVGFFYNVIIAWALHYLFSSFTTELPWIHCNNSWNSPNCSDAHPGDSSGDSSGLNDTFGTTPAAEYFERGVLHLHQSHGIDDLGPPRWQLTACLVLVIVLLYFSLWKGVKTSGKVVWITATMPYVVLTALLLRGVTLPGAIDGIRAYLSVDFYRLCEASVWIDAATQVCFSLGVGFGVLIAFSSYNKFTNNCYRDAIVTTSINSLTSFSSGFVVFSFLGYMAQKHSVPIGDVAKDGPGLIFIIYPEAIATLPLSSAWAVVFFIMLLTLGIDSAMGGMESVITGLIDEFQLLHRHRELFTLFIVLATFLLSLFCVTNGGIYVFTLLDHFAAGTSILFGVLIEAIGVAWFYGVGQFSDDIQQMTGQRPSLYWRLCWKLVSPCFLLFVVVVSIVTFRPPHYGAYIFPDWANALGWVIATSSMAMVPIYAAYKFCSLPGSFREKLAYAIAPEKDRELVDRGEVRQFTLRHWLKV
T18 sequence (P11229 whole entry): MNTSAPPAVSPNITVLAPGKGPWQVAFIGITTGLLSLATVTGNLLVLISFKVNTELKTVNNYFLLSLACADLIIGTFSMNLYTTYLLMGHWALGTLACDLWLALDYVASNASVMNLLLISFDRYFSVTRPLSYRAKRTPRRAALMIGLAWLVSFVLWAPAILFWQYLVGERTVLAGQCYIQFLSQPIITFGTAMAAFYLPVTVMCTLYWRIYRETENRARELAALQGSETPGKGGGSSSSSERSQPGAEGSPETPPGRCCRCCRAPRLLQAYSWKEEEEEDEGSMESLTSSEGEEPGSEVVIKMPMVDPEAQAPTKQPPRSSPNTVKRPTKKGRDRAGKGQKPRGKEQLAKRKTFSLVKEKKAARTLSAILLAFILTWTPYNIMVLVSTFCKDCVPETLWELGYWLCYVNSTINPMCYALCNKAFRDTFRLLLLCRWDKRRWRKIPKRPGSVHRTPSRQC
T11 sequence (P43681 29-627 limits assumed): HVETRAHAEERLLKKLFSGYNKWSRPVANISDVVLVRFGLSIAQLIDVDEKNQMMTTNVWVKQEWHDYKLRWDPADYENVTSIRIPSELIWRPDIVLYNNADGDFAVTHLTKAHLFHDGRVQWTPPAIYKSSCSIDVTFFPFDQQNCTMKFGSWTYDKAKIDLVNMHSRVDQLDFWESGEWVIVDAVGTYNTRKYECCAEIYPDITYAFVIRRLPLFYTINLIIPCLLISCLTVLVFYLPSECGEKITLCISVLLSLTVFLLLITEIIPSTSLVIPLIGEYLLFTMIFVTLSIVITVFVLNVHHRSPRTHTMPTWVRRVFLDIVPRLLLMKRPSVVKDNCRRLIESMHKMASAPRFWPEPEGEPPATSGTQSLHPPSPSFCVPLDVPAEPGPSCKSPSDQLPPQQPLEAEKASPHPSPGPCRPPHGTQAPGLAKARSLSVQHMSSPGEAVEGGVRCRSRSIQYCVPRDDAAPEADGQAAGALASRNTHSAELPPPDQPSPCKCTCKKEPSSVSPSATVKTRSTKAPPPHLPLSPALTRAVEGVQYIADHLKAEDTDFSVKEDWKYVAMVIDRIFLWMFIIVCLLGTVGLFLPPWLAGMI
T11 sequence (P17787 26-502): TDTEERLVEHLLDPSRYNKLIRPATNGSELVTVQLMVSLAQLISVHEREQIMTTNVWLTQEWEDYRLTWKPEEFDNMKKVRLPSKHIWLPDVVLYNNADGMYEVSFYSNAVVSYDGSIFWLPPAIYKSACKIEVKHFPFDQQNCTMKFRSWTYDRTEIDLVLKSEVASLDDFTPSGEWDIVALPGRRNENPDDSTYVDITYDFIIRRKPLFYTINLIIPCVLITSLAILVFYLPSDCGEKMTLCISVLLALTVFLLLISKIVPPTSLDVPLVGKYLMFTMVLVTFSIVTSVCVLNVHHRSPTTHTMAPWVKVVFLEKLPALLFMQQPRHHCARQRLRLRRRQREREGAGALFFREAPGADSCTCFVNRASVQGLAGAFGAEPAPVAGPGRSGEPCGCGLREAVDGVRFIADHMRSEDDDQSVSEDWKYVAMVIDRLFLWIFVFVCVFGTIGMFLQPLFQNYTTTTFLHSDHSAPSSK
T10 sequence (P07550 whole entry): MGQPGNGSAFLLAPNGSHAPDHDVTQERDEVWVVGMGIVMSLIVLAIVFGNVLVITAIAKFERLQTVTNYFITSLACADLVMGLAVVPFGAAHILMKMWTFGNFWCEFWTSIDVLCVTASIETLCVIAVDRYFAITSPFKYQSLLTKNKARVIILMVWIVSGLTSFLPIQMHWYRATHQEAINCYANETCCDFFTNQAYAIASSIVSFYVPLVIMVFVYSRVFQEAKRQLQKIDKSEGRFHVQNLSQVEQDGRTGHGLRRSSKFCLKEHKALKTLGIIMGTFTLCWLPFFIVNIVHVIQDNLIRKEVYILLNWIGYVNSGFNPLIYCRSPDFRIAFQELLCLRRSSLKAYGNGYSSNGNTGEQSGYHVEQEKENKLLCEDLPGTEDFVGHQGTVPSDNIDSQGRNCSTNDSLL
T1 sequence (P27338 whole entry): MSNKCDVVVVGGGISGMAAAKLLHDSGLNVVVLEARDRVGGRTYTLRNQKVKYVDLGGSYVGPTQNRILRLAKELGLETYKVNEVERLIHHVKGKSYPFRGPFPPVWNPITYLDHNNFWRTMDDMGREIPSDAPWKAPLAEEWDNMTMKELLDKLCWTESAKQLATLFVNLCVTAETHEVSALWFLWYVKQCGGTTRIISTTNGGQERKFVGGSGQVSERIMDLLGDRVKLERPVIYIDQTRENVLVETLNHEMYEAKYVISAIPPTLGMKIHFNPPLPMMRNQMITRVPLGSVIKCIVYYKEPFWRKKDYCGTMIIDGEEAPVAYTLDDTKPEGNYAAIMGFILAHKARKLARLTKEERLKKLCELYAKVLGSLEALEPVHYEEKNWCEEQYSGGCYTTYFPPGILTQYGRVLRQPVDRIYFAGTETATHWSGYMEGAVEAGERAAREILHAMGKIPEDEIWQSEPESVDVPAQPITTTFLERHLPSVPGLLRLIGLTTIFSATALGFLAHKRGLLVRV
T9 sequence (P41595 whole entry): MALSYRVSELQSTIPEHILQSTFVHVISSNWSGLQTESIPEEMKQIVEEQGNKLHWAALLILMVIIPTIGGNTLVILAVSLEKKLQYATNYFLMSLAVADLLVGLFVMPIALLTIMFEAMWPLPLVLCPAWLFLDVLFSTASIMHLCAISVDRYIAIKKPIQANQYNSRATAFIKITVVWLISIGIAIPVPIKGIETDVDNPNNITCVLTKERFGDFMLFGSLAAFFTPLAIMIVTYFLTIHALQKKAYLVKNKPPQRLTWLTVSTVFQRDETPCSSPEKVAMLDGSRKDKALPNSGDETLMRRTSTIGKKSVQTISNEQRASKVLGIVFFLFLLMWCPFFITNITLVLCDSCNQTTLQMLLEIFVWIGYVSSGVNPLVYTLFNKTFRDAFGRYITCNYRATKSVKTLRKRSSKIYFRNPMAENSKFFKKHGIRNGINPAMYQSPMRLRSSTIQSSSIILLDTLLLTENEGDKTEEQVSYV
T6 sequence (P21728 whole entry): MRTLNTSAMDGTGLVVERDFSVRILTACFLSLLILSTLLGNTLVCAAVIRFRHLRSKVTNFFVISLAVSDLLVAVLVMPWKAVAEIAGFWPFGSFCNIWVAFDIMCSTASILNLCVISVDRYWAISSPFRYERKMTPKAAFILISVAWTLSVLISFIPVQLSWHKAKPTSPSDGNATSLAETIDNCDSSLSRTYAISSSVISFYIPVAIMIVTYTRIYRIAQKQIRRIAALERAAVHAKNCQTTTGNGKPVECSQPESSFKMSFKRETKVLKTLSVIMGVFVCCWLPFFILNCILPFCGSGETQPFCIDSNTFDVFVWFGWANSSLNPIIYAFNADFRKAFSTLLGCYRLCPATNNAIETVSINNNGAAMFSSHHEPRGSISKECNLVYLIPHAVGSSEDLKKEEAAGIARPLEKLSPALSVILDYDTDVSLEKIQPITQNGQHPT
T14 sequence (P35372 whole entry): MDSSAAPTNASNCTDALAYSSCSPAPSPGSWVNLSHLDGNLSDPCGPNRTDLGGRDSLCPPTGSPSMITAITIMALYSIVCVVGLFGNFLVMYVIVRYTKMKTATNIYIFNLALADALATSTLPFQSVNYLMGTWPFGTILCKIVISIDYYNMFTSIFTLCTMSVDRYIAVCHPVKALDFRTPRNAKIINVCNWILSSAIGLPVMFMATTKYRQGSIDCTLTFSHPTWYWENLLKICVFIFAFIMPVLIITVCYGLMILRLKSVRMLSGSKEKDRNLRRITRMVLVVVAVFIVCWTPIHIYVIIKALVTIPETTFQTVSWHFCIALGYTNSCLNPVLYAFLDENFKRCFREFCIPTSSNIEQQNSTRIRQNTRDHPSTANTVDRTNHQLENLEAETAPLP

Take `CCN(CC)C(=O)[C@H]1CCCc2c1c1c(OC)cccc1n2CC[18F]` [[^18F]GE180]: in the data set on A147T TSPO, the “reduction in affinity for A147T TSPO in vitro” value is recorded as 5 fold.
For `Cc1cc(C)n2nc(-c3ccc(OCCF)cc3)c(CC(=O)N(C)c3ccccc3)c2n1` [DPA-814], the “% Binding Inhibition at 10 μM, Central Benzodiazepine Receptor” value in data set [1] amounted to 18%. Also, the inhibition at 10 µM came to 47% on MAO-B; 24% on D1; 4% at NET; 4% at 5-HT2A; 30% at 5-HT2B; 0% at β2 Adrenergic receptor. In addition, the inhibition at 10 µM on nAChR (α4/β2) was 1%; on SERT, 2%; on CB2, -22%; on MOP, 24%; at CB1 it was -6%; at D2L, 11%. For the same compound, the values for the inhibition at 10 µM on DAT and on M1 were 7% and -14%, respectively. For the same compound, the “increase in affinity to A147T TSPO versus parent compound” value at A147T human TSPO worked out at 46 fold. In addition, the Ki (as a rule, the equilibrium dissociation constant of an inhibitor or competing ligand from its target) at A147T human TSPO worked out at 5.7 ± 1.8 nM; on WT human TSPO [3] it was 7.3 ± 0.5 nM. Moreover, the “binding affinity to rat TSPO” value at rat TSPO was “subnanomolar”. Also, on WT human TSPO [2], the “increase in affinity to WT TSPO versus parent compound” value is recorded as 3 fold. In data set [4], the chromatographic logD came to 3.7.
For `COc1ccc(-c2nn3c(C)cc(C)nc3c2CC(=O)N(C)c2ccccc2)cc1` [DPA-813], in [1], the “% Binding Inhibition at 10 μM, Central Benzodiazepine Receptor” value was found to be 51%. Further, the inhibition at 10 µM at MAO-B was 10%; on D1, 13%; on NET, 3%; on 5-HT2A it was 1%; at 5-HT2B, 25%; on β2 Adrenergic receptor, -1%. The inhibition at 10 µM was 4% at nAChR (α4/β2); 4% at SERT; -16% at CB2; 15% on MOP; 4% on CB1; 10% at D2L. For the same compound, the inhibition at 10 µM is 10% on DAT and -13% on M1. For the same compound, the “increase in affinity to A147T TSPO versus parent compound” value on A147T human TSPO was ~ 32 fold. Besides, the Ki on A147T human TSPO is 3.1 ± 0.9 nM; at WT human TSPO [3] it was 6.2 ± 1.9 nM. Further, the “binding affinity to rat TSPO” value on rat TSPO was “subnanomolar”. The “increase in affinity to WT TSPO versus parent compound” value on WT human TSPO [2] is reported as ~ 3 fold. In addition, the chromatographic logD in data set [4] was found to be 3.6.
